Measured values: publication PMC12655351, “Synthesis and Anticancer Activity Evaluation of New 5-((5-Nitrofuran-2-yl)allylidene)-2-thioxo-4-thiazolidinones” (Pharmaceuticals, 2025)
“And” between values parts separate entries of the source, which are not always exact repeats. Identical values can stand only once. Like-named read-outs stand apart in the source and are kept apart here.

Assays:
MOLT-4 = settings: MOLT-4, 48 h
MDA-MB-231/ATCC = settings: 10 μM, 48 h
Prostate Cancer = assay: cells; settings: Homo sapiens, read-out: MG_MID GI50
SR = assay: cells; settings: Homo sapiens, 48 h
MCF7 = assay: NCI-60 SRB screen; settings: MCF7, 48 h
HS 578T = assay: cells; settings: Homo sapiens, 48 h; for CC50: read-out: LC50
Renal Cancer = Renal Cancer subpanel
HT29 = settings: HT29, 48 h
CNS cancer = assay: cells; settings: Homo sapiens; for GI50: read-out: MG_MID GI50; for CC50: read-out: MG_MID LC50
OVCAR-3 = assay: cells; settings: Homo sapiens, OVCAR-3, 48 h
A498 = settings: A498, 48 h
RPMI-8226 [1] = settings: RPMI-8226, 48 h
PC-3 = assay: cells; settings: Homo sapiens, PC-3, 48 h
[2] = test system: panel of 60 cancer cell lines; settings: for Positive cytostatic effect (ratio of cell lines with GP from 0 to 50 to total number) / Mean growth: 10 μM, 48 h; for Mean growth: one dose; for MG_MID TGI: full panel (last line of Table S2)
UACC-62 = assay: NCI-60 SRB screen; settings: for GI50 / CC50: UACC-62, 48 h; for growth GP: UACC-62, 10 μM, 48 h
NCI/ADR-RES = settings: 48 h
HOP-62 = assay: NCI-60 SRB screen; settings: for TGI / GI50: HOP-62, 48 h
OVCAR-4 = settings: for growth GP: OVCAR-4, 10 μM; for GI50 / TGI: OVCAR-4, 48 h
BT-549 = settings: 48 h; for growth GP: BT-549, 10 μM
RPMI-8226 [3] = assay: cells; settings: Homo sapiens, RPMI-8226, 48 h
HOP-92 = assay: NCI-60 SRB screen; settings: HOP-92, 48 h
MCF-7 = assay: [3H]-thymidine incorporation assay; assay type: cell-based; settings: Homo sapiens, MCF7; MCF-7, 24 h of treatment
Description: (§1) Another method of assessing the cytotoxic effects of tested compounds, [^3H]-thymidine incorporation assay, was applied. This method provided the capability to analyze the antiproliferative activity of novel structures on MCF-7 and MDA-MB-231 through their ability to incorporate thymidine into the cells. The acquired results further confirmed the potent activity of the 14b compound as the most prominent structure among the novel compounds (Table 2). The test was carried out in triplicate at concentrations of 5, 15, and 30 μM for the MDA-MB-231 cell line and 1, 5, and 10 μM for the MCF-7 cell line.
(§2) Following the selection of cell lines for further study, the effects of all compounds on cell proliferation were evaluated on MCF-7 and MDA-MB-231 cell lines. Cells were seeded in 24-well plates and cultured as described above. Cells were treated with the compounds at concentrations 1, 5, and 10 μM, and 5, 15, and 30 μM for MCF-7 and MDA-MB-231 cell lines, respectively, for 24 h. Subsequently, 0.5 μCi [^3H]-thymidine was added for 4 h at 37 °C. Then, plates with cells were placed on the ice, the liquid was aspirated, and cells were washed twice with 1mL of 0.05 M Tris-HCl buffer comprising 0.11 M NaCl and precipitated by adding 1 mL per well of 5% trichloroacetic. After precipitation, the cells were dissolved with 1 mL of 0.1 M NaOH with 1% SDS (Sigma-Aldrich, St. Louis, MO, USA) at room temperature (RT). The cell lysates were transferred into scintillation vials containing 2 mL of scintillation fluid (Ultima Gold™ XR, PerkinElmer, MA, USA), and cell-associated radioactivity was measured using a Scintillation Counter 1900 TR, TRI-CARB (Packard, Perkin Elmer, Inc., San Jose, CA, USA). The [^3H]-thymidine uptake was expressed as a percentage of the control value.

MDA-MB-231 = assay: [3H]-thymidine incorporation assay; assay type: cell-based; settings: Homo sapiens; MDA-MB-231, 24 h of treatment
Description: as §1, §2

DU-145 = settings: for growth GP: DU-145, 10 μM; for growth GP / CC50: 48 h; for GI50 / TGI: DU-145, 48 h; for CC50: human
NCI-H460 = assay: NCI-60 SRB screen; settings: NCI-H460, 48 h; for CC50: read-out: LC50
786-0 = assay: cells; settings: Homo sapiens, 786-0, 48 h
K-562 = settings: K-562, 48 h
HCT-15 = assay: NCI-60 SRB screen; settings: HCT-15, 48 h
[4] = Homo sapiens, read-out: LC50, HOP-92, 48 h

O=C(O)CCCN1C(=O)/C(=C/C=C/c2ccc([N+](=O)[O-])o2)SC1=S [13b, 4-((Z)-5-((E)-3-(5-Nitrofuran-2-yl)allylidene)-4-oxo-2-thioxothiazolidin-3-yl)butanoic acid]
GI50 (MOLT-4): 290 nM
TGI (MOLT-4): 1860 nM and 1160 nM
growth GP (MDA-MB-231/ATCC): -95.61%
GI50 (Prostate Cancer): 820 nM
CC50 (SR; read-out: LC50): > 100000 nM
GI50 (MCF7; Homo sapiens): 350 nM
GI50 (MCF7): 200 nM
TGI (MCF7): 1970 nM and 1580 nM
CC50 (HS 578T): > 100000 nM
MG_MID TGI (Renal Cancer): 2600 nM
GI50 (HT29): 260 nM
GI50 (CNS cancer): 800 nM
CC50 (CNS cancer): 6680 nM
GI50 (OVCAR-3): 770 nM
GI50 (A498): 3320 nM
TGI (A498): 11500 nM and 8160 nM
TGI (RPMI-8226 [1]): 1580 nM
GI50 (PC-3): 620 nM
Positive cytostatic effect (ratio of cell lines with GP from 0 to 50 to total number) [2]: 2/55
Mean growth [2]: -76.34%
MG_MID TGI [2]: 4880 nM
GI50 (UACC-62; Homo sapiens): 310 nM
growth GP (UACC-62): -95.10%
GI50 (UACC-62): 180 nM
GI50 (NCI/ADR-RES): 260 nM
TGI (NCI/ADR-RES): 1230 nM and 770 nM
growth GP (HOP-62; HOP-62, 10 μM, 48 h): -94.79%
TGI (HOP-62): 2670 nM and 1900 nM
growth GP (OVCAR-4; 48 h): -97.74%
GI50 (OVCAR-4): 1560 nM
TGI (OVCAR-4): 2580 nM and 2940 nM
CC50 (OVCAR-4; human, 48 h): 5540 nM
growth GP (BT-549): -98.54%
GI50 (RPMI-8226 [3]): 360 nM
CC50 (RPMI-8226 [3]; read-out: LC50): > 100000 nM
CC50 (HOP-92; [4]): 6330 nM
CC50 (HOP-92; read-out: LC50): 4240 nM
IC50 (MCF-7): 3970 nM
IC50 (MDA-MB-231): 1770 nM
growth GP (DU-145): -99.43%
GI50 (DU-145): 1150 nM
TGI (DU-145): 2320 nM and 2830 nM
CC50 (DU-145): 7010 nM
GI50 (NCI-H460; Homo sapiens): 630 nM
CC50 (NCI-H460; Homo sapiens): 4940 nM
GI50 (NCI-H460): 330 nM
TGI (NCI-H460): 1990 nM and 1390 nM
GI50 (786-0): 320 nM
GI50 (SK-OV-3; SK-OV-3, 48 h): 2180 nM
TGI (SK-OV-3; SK-OV-3, 48 h): 7440 nM and 13100 nM
CC50 (SK-OV-3; human, 48 h): 39400 nM
GI50 (K-562): 90 nM
TGI (K-562): > 100000 nM
GI50 (HCT-15): 110 nM
TGI (HCT-15): 520 nM and 330 nM
GI50 (HCT-15; Homo sapiens): 180 nM

O=C(O)CCCCCN1C(=O)/C(=C/C=C/c2ccc([N+](=O)[O-])o2)SC1=S [14b, 6-((Z)-5-((E)-3-(5-nitrofuran-2-yl)allylidene)-4-oxo-2-thioxothiazolidin-3-yl)hexanoic acid]
GI50 (MOLT-4): 310 nM
TGI (MOLT-4): 1500 nM and 1210 nM
growth GP (MDA-MB-231/ATCC): -99.86%
GI50 (Prostate Cancer): 1260 nM
GI50 (SR): 270 nM
GI50 (MCF7; Homo sapiens): 390 nM
GI50 (MCF7): 440 nM
TGI (MCF7): 1820 nM and 1990 nM
GI50 (HS 578T; HS 578T): 1440 nM
CC50 (HS 578T): > 100000 nM
MG_MID TGI (Renal Cancer): 4630 nM
GI50 (HT29): 1130 nM
TGI (HT29): 2710 nM and 3390 nM
GI50 (CNS cancer): 1140 nM
CC50 (CNS cancer): 6090 nM
GI50 (OVCAR-3): 1120 nM
GI50 (A498): 10200 nM
TGI (A498): 20800 nM and 22800 nM
TGI (RPMI-8226 [1]): 1320 nM
Positive cytostatic effect (ratio of cell lines with GP from 0 to 50 to total number) [2]: 4/55
Mean growth [2]: -67.89%
MG_MID TGI [2]: 3580 nM
GI50 (UACC-62; Homo sapiens): 370 nM
CC50 (UACC-62; Homo sapiens, read-out: LC50, UACC-62, 48 h): 4080 nM
growth GP (UACC-62): -96.88%
GI50 (UACC-62): 250 nM
CC50 (UACC-62; read-out: LC50): 2820 nM
GI50 (NCI/ADR-RES): 430 nM
TGI (NCI/ADR-RES): 1850 nM and 2390 nM
GI50 (HOP-62): 1450 nM
TGI (HOP-62): 3050 nM and 3010 nM
GI50 (HOP-62; Homo sapiens): 1440 nM
growth GP (OVCAR-4; 48 h): -97.80%
GI50 (OVCAR-4): 1490 nM
TGI (OVCAR-4): 2690 nM and 2840 nM
growth GP (BT-549): -97.16%
CC50 (BT-549; human): 3030 nM
GI50 (RPMI-8226 [3]): 330 nM
GI50 (HOP-92): 1050 nM
TGI (HOP-92): 3340 nM and 2480 nM
GI50 (HOP-92; Homo sapiens): 1740 nM
CC50 (HOP-92; [4]): 6410 nM
IC50 (MCF-7): 2600 nM
IC50 (MDA-MB-231): 1600 nM
growth GP (DU-145): -98.04%
GI50 (DU-145): 1590 nM
TGI (DU-145): 2870 nM and 3180 nM
CC50 (DU-145): 6350 nM
GI50 (NCI-H460; Homo sapiens): 1000 nM
CC50 (NCI-H460; Homo sapiens): 5540 nM
GI50 (NCI-H460): 630 nM
TGI (NCI-H460): 2360 nM and 2310 nM
GI50 (786-0): 610 nM
GI50 (SK-OV-3; SK-OV-3, 48 h): 2980 nM
GI50 (K-562): 280 nM
GI50 (UO-31; UO-31, 48 h): 670 nM
TGI (UO-31; UO-31, 48 h): 1850 nM and 2050 nM
CC50 (UO-31; human, 48 h): 4890 nM
GI50 (HCT-15): 160 nM
TGI (HCT-15): 510 nM and 350 nM
GI50 (HCT-15; Homo sapiens): 190 nM
